Measured values: patent publication US4656178A (priority 1985, dated 1987)
Structures can show the parent of a compound that is named as a salt. Where two headings read alike, the source gives them in different places.

Experiments:
[1] = solubility; assay type: physicochemical
Method: The aerial portion and roots (tubers) of the plant Acontium leucostomum are disintegrated. The disintegrated air-dry raw material is wetted with a 3% solution of sodium carbonate and 1 hour thereafter is poured with chloroform. 12 hours afterwards the chloroform is drained and the plant is treated with a fresh portion of chloroform. There are thus obtained 8 extracts which are combined and evaporated under vacuum to a small volume. From the concentrated chloroform extract the alkaloids are recovered by means of a 2% sulphuric acid. The combined acid extracts are washed with chloroform, alkalinized by soda and extracted with chloroform. The chloroform extract is evaporated and the residue is treated with acetone to give a commercial product--lappaconitine which is recrystallized from methanol. Methanolic solution of lappaconitine and hydrobromic acid are mixed. […] M.p. is 216°-220° C., [α]D^24 =+27 (alcohol); C32 H44 O8 N2.HBr, molecular weight= 664.9.

[2] = tested on: aconitine arrhythmia; assay: animal or person; assay type: in vivo, rats
Method: The assessment of the antiarrhythmic activity of the preparation was effected in acute and chronical experiments on rats, rabbits, cats and dogs. Various experimental models of arrhythmia were also used.
The atrioventricular arrhythmia caused by aconitine is one of the most reliable models for forecasting the efficiency of the antiarrhythmic action of the novel preparation in clinics. The experiments were conducted on both narcotized and non-narcotized animals. The preparation was administered per os, intramuscularly, intraperitoneally and intravenously 5 to 15 minutes prior to or 3-5 minutes after the administration of aconitine.
In doses of 0.2-0.5 mg/kg the preparation of this invention prevents the appearance of aconitine arrhythmia in 100% of the rats. […] Under similar experimental conditions a preliminary administration of novocainamide in the dose of 60 mg/kg intravenously produced an antiarrhythmic effect in 50% of the animals.

[3] = 6-month histological toxicity, rabbits; assay type: in vivo; details: intravenous, 0.1 and 0.5 mg/kg, 6 months
[4] = tested on: cardiac arrhythmia caused by ligation of the descending branch of the left coronary artery; assay: cardiac arrhythmia caused by ligation of the descending branch of the left coronary artery (Harris method) in dogs; assay type: in vivo
Method: The effect of the preparation according to the present invention on the cardiac arrhythmia caused by ligation of the descending branch of the left coronary artery by the Harris method was studied in experiments on dogs. The preparation according to the present invention was intravenously administered on the first and second post-operative days. Preliminarily, prior to every experiment 30 to 45 minutes before the administration of the preparation the background changes of the dogs' electrocardiogram (ECG) were recorded. […] In 40% thereof a full suppression of ectopic contractions was noticed for 3-3.5 hours, whereafter arrhythmia appeared with the intensity thereof not reaching the initial background during 7 hours.

[5] = tested on: arrhythmia caused by electrical irritation; assay: arrhythmia caused by electrical irritation of the right auricle and apex of the left ventricle; assay type: in vivo, dogs and cats
[6] = tested on: coronary blood circulation; assay: volume rate of the coronary blood flow in cats; assay type: in vivo
Method: The effect of the pharmaceutical composition according to the present invention on the coronary blood circulation was studied in acute experiments on cats by the method of recording of the volume rate of the coronary blood flow. […] The introduction of 1 mg/kg of the preparation results in an increased volume rate of the coronary blood flow by 30-80% during a long time.

[7] = tested on: arrhythmia induced by adrenalin; assay: arrhythmia induced by adrenalin in dogs with ligated coronary artery; assay type: in vivo; details: 0.1-0.2 mg/kg
[8] = local anesthetic effect in intact rabbits; assay type: in vivo
Method: The local anesthetic effect of the preparation was studied on 14 intact rabbits. […] The results of the experiments on determination of the ability of the preparation to cause infiltration anesthesia have shown that 10-15 minutes after intracutaneous administration, to rabbits, of 0.01-0.05% and 0.1% solutions of the preparation anesthesia occurs which is characterized by an increased threshold of a pain irritation; the duration of the effect is 20 to 48 hours. Under the same conditions of the experiment, the local anesthetic effect of a 0.5% solution of novocaine lasts for 90 minutes on the average.

[9] = lethal dose in rabbits; assay type: in vivo
Method: The resorptive effect and toxicity of the preparation according to the present invention were studied on mice, rats, rabbits and dogs.
In doses of 5-6 mg/kg intravenously the preparation according to the present invention causes death of dogs and in doses of 3-4 mg/kg it is lethal for rabbits.

[10] = long-time administration, histological analysis of inner organs; assay type: in vivo, laboratory animals (dogs, rabbits, rats); details: 10 mg/kg
[11] = tested on: cardiac conductive system; assay type: in vivo, narcotized rats, cats, intact rabbits and dogs
Source text: To investigate the character of the effect produced on the functions of the cardiac conductive system by the preparation according to the present invention, the ECG changes appearing in narcotized rats, cats, intact rabbits and dogs under the action of the preparation of this invention were studied. […] The effect of the preparation is retained for a long time.

[12] = tested on: central adreno- and cholinergic processes; assay: central effects (sedative, adreno-, cholinergic, serotonin); details: in vivo
[13] = effect on arterial pressure and breathing in narcotized cats and dogs; assay type: in vivo; details: intravenous, 0.05, 0.1, 0.5, 1 mg/kg
Source text: With the view to evaluate the effect of the preparation according to the present invention on arterial pressure and breathing, experiments have been carried out on narcotized cats and dogs.

CCN1CC2(OC(=O)c3ccccc3NC(C)=O)CCC(OC)C34C1C(CC23)C1(O)CC(OC)C2CC4C1(O)C2OC (stereo not drawn) [lappaconitine hydrobromide]
solubility [1]: soluble in water, alcohol, better in methanol | minimal effective dose ([2]; Rattus norvegicus, read-out: dose from which the antiarrhythmic effect is revealed): 0.03 mg/kg | animals in which appearance of aconitine arrhythmia is prevented ([2]; doses of 0.2-0.5 mg/kg, rats): 100% | antiarrhythmic index (LD50/ED50) ([2]; prophylactic effect, aconitine arrhythmia): 118.0 | destructive changes of inner organs and tissues [3]: no destructive changes on the part of inner organs and tissues | animals with antiarrhythmic effect ([4]; 0.5 mg/kg intravenously): 86% | animals with 100% antiarrhythmic effect over 5 hours ([4]; 1 mg/kg): 60% | animals with full suppression of ectopic contractions for 3-3.5 hours ([4]; 1 mg/kg): 40% | animals with full inhibition of ventricular extrasystole ([4]; 1 mg/kg intravenously): 100% | duration of full suppression of ectopic contractions ([4]; 1 mg/kg, in 40% of the animals): 3 to 3.5 h | time during which reappearing arrhythmia does not reach the initial background ([4]; 1 mg/kg, in 40% of the animals): 7 h | duration of 100% antiarrhythmic effect ([4]; 1 mg/kg, in 60% of the animals): over 5 hours | heart beat rate ([4]; accompanying reduction or arresting of arrhythmia, all experiments): reduction of the heart beat rate | time of appearance of antiarrhythmic effect ([4]; after intravenous administration): 5 to 15 min | activity relative to novocainamide (times more active) ([4]; dog, in vivo): 70 times | duration and rapidity of effect relative to novocainamide ([4]; dog, in vivo): considerably superior to it in the duration of the effect, but inferior to novocainamide in the rapidity of occurrence of the antiarrhythmic effect | relationship of effect to dose ([4]; dog, in vivo): in a direct relationship with the administered dose | arterial pressure and amplitude of the heart beat ([5]; 0.25 and 0.5 mg/kg): not changed | duration of antiarrhythmic effect ([5]; 0.25 and 0.5 mg/kg): 2 to 3 h | arrest of arrhythmia caused by electrical irritation ([5]; 0.25 and 0.5 mg/kg intravenously, 7 dogs and 10 cats): fully stops the origination of arrhythmia | onset of antiarrhythmic effect ([5]; after administration, 0.25 and 0.5 mg/kg): 3 to 7 min | activity relative to quinidine and novocainamide (times superior) ([5]; dog, in vivo): 40 times | animals with increased coronary blood flow ([6]; 0.5 mg/kg): 40% | increase of coronary blood flow ([6]; 0.5 mg/kg, in 40% of the animals): 15-30% | increase of volume rate of coronary blood flow ([6]; 1 mg/kg, during a long time): 30-80% | effect on coronary blood flow ([6]; intravenous, 0.1 mg/kg): does not provide any effect | duration of effect [7]: more than 2 hours | effect on arrhythmia induced by adrenalin [7]: cuts short the arrhythmia induced by adrenalin | effect on arterial pressure and on adrenalin hypertension [7]: does not affect the level of arterial pressure or the height of elevation of arterial pressure (hypertension) caused by adrenalin | time to maximum effect [7]: 5 to 10 min | anesthetic activity relative to tetracaine hydrochloride ([8]; 14 intact rabbits): matches tetracaine hydrochloride in its anesthetic activity | depth of anesthesia relative to tetracaine hydrochloride ([8]; rabbit, in vivo): inferior to tetracaine hydrochloride | duration of anesthetic effect relative to tetracaine hydrochloride ([8]; rabbit, in vivo): more than 6 times | lethal dose [9]: 3 to 4 mg/kg | structural changes in inner organs [10]: structural changes in the inner organs | effect on ECG ([11]; 1-2 mg/kg): increase the ranges PQ, QRS, QT, insignificantly R-R; the ripple S is deepened, the amplitude of the ripple T is uniformly increased | effect on myocardial conductivity and sinus node automatism ([11]; in vivo): lowers conductivity of the myocardium and, to a lesser extent, automatism of the sinus node | sublethal and lethal doses ([11]; intravenous): 4 to 6 mg/kg | effect on ECG ([11]; intravenous, 0.5 mg/kg): deceleration of the atrioventricular conductivity and a certain rarification of the rhythm | effect on ECG ([11]; intravenous, 4-6 mg/kg): growing inhibition of conductivity along the cardiac conducting system | effect on ECG ([11]; rats, intravenous, 0.05 to 0.25 mg/kg): does not cause in rats any substantial effect on the ECG | central sedative effect [12]: weak central sedative effect | effect on central adreno- and cholinergic processes [12]: does not provide any substantial effect on central adreno- and cholinergic processes | serotonin-negative effect [12]: weak | influence on arterial pressure and breathing [13]: did not exert any influence on the arterial pressure and breathing
